Blank lines part the entries; values can stand above or below the molecule they belong to.
Experiments:
[1] = tested on: Chinese hamster lung (CHL) cell; assay: Chromosomal aberration test using Chinese hamster lung (CHL) cell; type: cell-based; settings: for Chromosomal aberration test result: dose not given
From the text: For measuring the induction of chromosomal aberration, the chromosomal aberration test has been carried out using Chinese hamster lung (CHL) cell. 2 kinds of methods have been adopted, such as, metabolic activation method (+S9) using metabolic activation system and direct method (−S9) without metabolic activation system.
For determining the test material reacting concentration, the cell growth inhibition test has been carried out. The test material has been dissolved and diluted in dimethyl sulfoxide (DMSO). Regardless of metabolic activation system, 12 concentration steps (2.43, 4.87, 9.75, 19.5, 39.1, 78.1, 156.3, 312.5, 625, 1250, 2500, 5000 μg/ml) of test material have been prepared. The cells have been cultured for 24 hours as the same way of main test. […] The medium has been further cultured for 18 hours.
Based upon the data of cell growth inhibition test, maximum concentration has been determined when the cell growth has been inhibited up to 50% as the relative cell numbers.
Regardless of metabolic activation system, the test materials have been prepared after 24 hours from the initiation of test. Then, the number of chromosomal aberration has been counted.

[2] = tested on: HCl-Ethanol inducing gastritis model; assay: HCl-Ethanol inducing gastritis model; type: in vivo, white rats
Experimental: After white rats have been fasted for 24 hours, CD-101, CD-102 and CD-103 compound have been orally administered according to method disclosed in Mizui et al., Jap. J. Pharmacol. 33: pp. 939-945 (1983). After 1 hour, 1.5 ml of 60% ethanol including 150 mM HCl has been orally administered to each animal. 1 hour later, animals have been sacrificed by cervical dislocation. After removing the stomach, the stomach has been fixed by injection of 13 ml of 2% formalin for 1 hour. After fixed stomach has been spread out, the lesion area has been measured using the photo by digital camera. Computer program Image J 1.38 (NIH, Bethesda, Md.) has been applied for measuring gastric lesion area (mm^2) The lesion inhibition rate has been calculated according to following equation. Further, 50% effective dose (ED50) has been also calculated using regression analysis.
Lesion inhibition rate(%)={gastric lesion area of control group(mm^2)−gastric lesion area of drug administration group(mm^2)}/gastric lesion area of control group(mm^2)×100

[3] = tested on: indomethacin inducing stomach ulcer model; assay: Indomethacin inducing stomach ulcer model; type: in vivo, white rats; settings: oral
Experimental: After white rats have been fasted for 24 hours, CD-101, CD-102 and CD-103 compound have been orally administered according to method disclosed in Yamasaki et al., Jap. J. Pharmacol. 49: pp. 441-448 (1989). After 1 hour, indomethacin (50 mg/kg) has been orally administered to each animal After fasting for 5 hours, animals have been sacrificed by cervical dislocation. After removing the stomach, the stomach has been fixed by injection of 13 ml of 2% formalin for 1 hour. After fixed stomach has been spread out, the lesion area has been measured using the photo by digital camera. Computer program Image J 1.38 (NIH, Bethesda, Md.) has been applied for measuring gastric lesion area (mm^2) The lesion inhibition rate and 50% effective dose (ED50) have been calculated as the same manner of HCl-EtOH model.

[4] = +S9 (metabolic activation method)

Chromosomal aberration test results ([1]; +S9, dose 20 μg/kg): negative
Chromosomal aberration test results ([1]; +S9, dose 40 μg/kg): negative
Induction of chromosomal aberration ([1]; CHL cell): do not induce the chromosomal aberration
Chromosomal aberration test results ([1]; −S9, dose 5 μg/kg): negative
Compound: C=C1C(=O)O[C@@H]2[C@@H](O)[C@]3(C)CC[C@H]3[C@](C)(OC)CC[C@@H]12 [CD-101]

Chromosomal aberration test results ([1]; +S9, dose 5 μg/kg): negative
Chromosomal aberration test results ([1]; +S9, dose 20 μg/kg): negative
Induction of chromosomal aberration ([1]; CHL cell): do not induce the chromosomal aberration
Chromosomal aberration test results ([1]; −S9, dose 1.25 μg/kg): negative
Chromosomal aberration test results ([1]; −S9, dose 5 μg/kg): negative
Compound: C=C1C(=O)O[C@@H]2[C@@H]3[C@@H](CC[C@@]3(C)O)C(=C)CC[C@@H]12 [CD-102]
inhibition at 1 mg/kg ([2]; Rattus norvegicus, oral, dose 1 mg/kg, read-out: Lesion inhibition rate): 43%
inhibition at 3 mg/kg ([2]; Rattus norvegicus, oral, dose 3 mg/kg, read-out: Lesion inhibition rate): 70.4%
inhibition at 10 mg/kg ([2]; Rattus norvegicus, oral, dose 10 mg/kg, read-out: Lesion inhibition rate): 94.9%
50% effective dose (ED50) ([2]; oral, regression analysis): 1.31 mg/kg
Cytotoxicity ([1]; CHL cell): neither cytotoxicity
inhibition at 1 mg/kg ([3]; Rattus norvegicus, dose 1 mg/kg, read-out: Lesion inhibition rate): 41.6%
inhibition at 3 mg/kg ([3]; Rattus norvegicus, dose 3 mg/kg, read-out: Lesion inhibition rate): 56.1%
inhibition at 10 mg/kg ([3]; Rattus norvegicus, dose 10 mg/kg, read-out: Lesion inhibition rate): 77.2%
50% effective dose (ED50) ([3]; regression analysis): 1.82 mg/kg

Chromosomal aberration test results ([1]; +S9, dose 2.5 μg/kg): negative
Chromosomal aberration test results ([1]; +S9, dose 5 μg/kg): negative
Induction of chromosomal aberration ([1]; CHL cell): do not induce the chromosomal aberration
Chromosomal aberration test results ([1]; −S9, dose 0.625 μg/kg): negative
Chromosomal aberration test results ([1]; −S9, dose 1.25 μg/kg): negative
Compound: C=C1C(=O)O[C@@H]2[C@@H]3[C@@H](CC[C@@]3(C)O)[C@](C)(OC)CC[C@@H]12 [CD-103]

Compound: CO[C@@]12[C@H](COC(N)=O)C3=C(C(=O)C(C)=C(N)C3=O)N1C[C@@H]1N[C@@H]12 [Mitomycin C, reference compound]
Chromosomal aberration test results ([1]; −S9, dose 0.5 μg/kg): positive

Compound: CC1=C2C3OC(=O)[C@@H](C)[C@@H]3CC[C@@]2(C)C=CC1=O (stereo partly shown) [reference compound]
Lesion inhibition rate ([2]; Table 2, ineffective compounds, dose not given): no effect

Chromosomal aberration test result [1, 4]: positive positive
Chromosomal aberration test result ([1]; −S9 (direct method)): positive positive
Compound: C=C1C(=O)O[C@@H]2/C=C(\C)CC/C=C(\C)C[C@@H](OC(C)=O)C12 (stereo partly shown) [reference compound]

Chromosomal aberration test result [1, 4]: positive positive
Chromosomal aberration test result ([1]; −S9 (direct method)): positive positive
Compound: C=C1C(=O)O[C@@H]2/C=C(\C)CCC(O)C(C)(O)C[C@@H](OC(C)=O)C12 (stereo partly shown) [reference compound]

Chromosomal aberration test result [1, 4]: positive positive
Chromosomal aberration test result ([1]; −S9 (direct method)): positive positive
Compound: CC(=O)O[C@@H]1/C=C(\C)CCC/C(C)=C/[C@H]2OC(=O)[C@H](CN(C)C)C12 (stereo partly shown) [reference compound]
